Test results: patent US20060035968A1, “Composition for preventing cancer comprising 2'-benzoyl-oxycinnamaldehyde” (Korea Research Institute of Bioscience and Biotechnology, priority 2004, published 2006)
“Also recorded” adds a separate entry of the source.

Legend:
[1] = test system: H-ras 12V-overexpressing mouse; assay: Effect of BCA on incidence of liver cancer in H-ras-overexpressing mouse (liver histology); assay type: in vivo
Procedure: A neonatal […] H-ras 12V-overexpressing mouse (KCTC 10318 BP) was intraperitoneally administered with 50 mg/kg of BCA (prepared by reacting 2′-hydroxy-cinnamaldehyde (HCA) isolated from the stem bark of C. cassia with benzoyl chloride in the presence of triethylamine) for ten weeks once every two days. Six months after birth, the liver tissue was excised from the mouse in an aseptic state, fixed with a formaldehyde solution, and embedded in paraffin. The resulting paraffin block was sectioned into a thickness of 4 μm using a microtome (LEICA Company), and tissue sections were attached onto slides. The tissue was then stained with hematoxylin/eosin and observed under a reverse phased microscope (Model: Bx 50, Olympus Company).

[2] = test system: tumor cell growth; settings: J. Biological Chemistry, 279(8), 6911-6920, 2004; cited from earlier work
[3] = test system: proliferative vitreoretinopathy (PVR) model in rabbits; settings: IOVS, 43(9), 3117-3124, 2002; cited from earlier work
[4] = test system: splenocytes; assay: Splenocyte proliferation by [3H]-thymidine after LPS or ConA stimulation; assay type: cell-based, mouse; settings: splenocytes of treated mice stimulated with ConA, 48 hours, FIG. 3B
Procedure: On the other hand, 2×10^5 splenocytes were aliquotted into a 96-well plate, stimulated with a cell proliferation inducer, LPS (lipopolysaccharide) or ConA (concanavalin A), and cultured for 48 hours. 1 μCi of [^3H]-thymidine was added to each well, followed by incubation for 6 hours. Cells were harvested on a nitrocellulose membrane, and radiation activity was measured using a beta scintillation counter (Wallac, Turku, Finland) to investigate proliferation ability of splenocytes.

[5] = animal test, J. Toxicol. Pub. Health, 2003, 19, 259-266; cited from earlier work
[6] = test system: human retinal pigment epithelial (hRPE) cells; settings: IOVS, 43(9), 3117-3124, 2002; cited from earlier work
[7] = test system: angiogenesis; settings: J. Biological Chemistry, 279(8), 6911-6920, 2004; cited from earlier work
[8] = test system: H-ras 12V-overexpressing mouse; assay: Splenocyte number in H-ras-transgenic mouse; assay type: in vivo; settings: 50 mg/kg i.p. once every two days for 10 weeks, Tg mouse vs control group (NTg), FIG. 3A
Procedure: A neonatal […] H-ras 12V-overexpressing mouse (KCTC 10318 BP) was intraperitoneally administered with 50 mg/kg of BCA and HCA (prepared by extracting the stem bark of C. cassia with organic solvents such as methanol and performing an isolation and purification process by various column chromatography methods) for ten weeks once every two days. Six months after birth, the spleen was excised from the mouse, and a single cell suspension was prepared. Red blood cells were removed from the single cell suspension using a RBC lysis solution (Sigma), and the number of splenocytes was counted under a microscope.

[9] = molecular target: farnesyl-protein transferase (Homo sapiens, UniProt P49356); settings: in vitro; cited from earlier work
[10] = 50 mg/kg i.p. once every two days for ten weeks, six months after birth

Structure (SMILES) | portion progressed to cancer in the liver ([1]; 50 mg/kg i.p. once every two days for ten weeks from 4 months old, liver at six months, vs control FIG. 1A) | number of immune cells in the liver [1, 10] | tumor progression to liver cancer [1, 10] | inhibition of tumor cell growth [2] | antiproliferative effect in PVR model [3] | T cell response (splenocyte proliferation) [4] | toxicity in vivo [5] | apoptosis in hRPE cells [6] | inhibition of angiogenesis [7] | cell number in the spleen (splenocyte number) [8] | cell number in the spleen (splenocyte number) ([8]; listed as BSA) | inhibition of farnesyl-protein transferase [9]
O=C/C=C/c1ccccc1OC(=O)c1ccccc1 [BCA, 2′-benzoyloxycinnamaldehyde] | remarkably reduced | increased | inhibited | inhibitory effects | antiproliferative effect | highest T cell response | no toxicity | induces apoptosis | inhibitory effects | increased cell number | largest increase | inhibit; also recorded: inhibitory effects
O=CC=Cc1ccccc1O [HCA, 2′-hydroxycinnamaldehyde, reference compound] |  |  |  | inhibitory effects |  |  |  |  | inhibitory effects | increased cell number |  | inhibitory effects
